# Laboratory results as given in patent US20080274104A1, “Targeting a Secreted Pro-Apoptotic Factor for Cancer Therapeutics” (priority 2005, published 2008).
# “And” between values parts separate entries of the source, which are not always exact repeats. Equal entries are not always repeated.
# Experiments:
# [1] = tested on: NGAL expression in SKBr3 cell line; assay: NGAL expression in breast cancer cell line; assay type: cell-based, human
# Description: Several breast cancer cell lines were examined for NGAL expression.
# C3H/HeJ mice = assay: C3H/HeJ mouse leukemia model injected with BCR-ABL+ 32D cells; assay type: in vivo; settings: individual mouse
# Procedure: Therefore, the present inventors wanted to determine whether the affects of anti-sense 24p3 expression in leukemia cells would produce the same effects as in the NOD/scid mouse. In these experiments, 10e6 BCR-ABL+32D cells were injected iv into 8-week old C3H/HeJ mice. Leukemia cells expressed either GFP or anti-sense 24p3 RNA or siRNA for 24p3. The GFP expressing leukemia cells induced a vigorous leukemia involving marrow, spleen, blood and liver (Table 2). Expression of anti-sense 24p3 in leukemia cells reduced the level of invasion in marrow and the spleen but not the liver. Importantly, these mice developed a vigorous ascites tumor growth of GFP+ cells, which was not observed in the GFP vector expressing leukemia cells. […]
# suitable targets cells = assay: Apoptosis induction with purified 24p3/NGAL; assay type: cell-based; settings: GST-bacterial method protein
# Description: These findings indicate that the Bcr-Abl oncoprotein in addition to its oncogenic effects also induces secretion of an apoptotic factor (24p3/NGAL) that causes suppression of normal hematopoiesis. […] Detailed structural analysis has shown that NGAL is an iron binding protein, and that the ligand for NGAL is a catecholate-type siderophore (Goetz et al., 2002). Whether the siderophore binding function is related to 24p3/NGAL's ability to induce apoptosis is not known. In specific embodiments, the apoptotic activity of 24p3/NGAL may require either post-translational modification in eukaryotic cells or formation of a complex with one or more factors. […] Local suppression of normal hematopoiesis by 24p3/NGAL secreted by leukemia cells would allow the leukemic clone to more readily compete, survive, infiltrate and proliferate in normal marrow and the spleen tissue environment. […] Thus, as little as one pluripotent stem cell that has acquired BCR-ABL expression by forming the Philadelphia chromosome could survive and compete in the normally active marrow environment because of its ability to secrete a cell death factor (and possibly other factors; Eaves et al., 1998; Olofsson and Olsson, 1980; Olofsson and Olsson, 1980; Skold et al., 1999) to which it is resistant. The ensuing cell death in the surrounding marrow cells would facilitate expansion of the leukemic clone in the normal marrow. […]
molecule,measurement,setting,value
Cc1ccc(S(=O)(=O)/C=C/C#N)cc1 [BAY11-7082],NGAL expression,[1],strongly inhibited
"siRNA #4: small hairpin RNA against 24p3 driven by H1 promoter, SEQ ID NO:1 (DNA GGCAGCTTTACGATGTACATTCAAGAGATGTACATCGTAAAGCTGCCTTTTTTCCAAT; expressed or natural sequence)",Ascites,C3H/HeJ mice,Yes
same,Solid tumor,C3H/HeJ mice,Yes
same,"GFP positive cells, Ascites",C3H/HeJ mice; listed as 32Dp210 siRNA,90% (2×) and 80% and 100% (2×)
same,"GFP positive cells, BM",C3H/HeJ mice; listed as 32Dp210 siRNA,<1% and 5% (3×) and No
same,"GFP positive cells, Liver",C3H/HeJ mice; listed as 32Dp210 siRNA,20% and 50% and 40% and 10% and 25%
same,"GFP positive cells, PB",C3H/HeJ mice; listed as 32Dp210 siRNA,50% and <1% and 20%
same,"GFP positive cells, Spleen",C3H/HeJ mice; listed as 32Dp210 siRNA,5% and 25% and <1% and No and 20%
same,"GFP positive cells, Tumor",C3H/HeJ mice; listed as 32Dp210 siRNA,40% and 70%
same,Spleen wt,C3H/HeJ mice; listed as 32Dp210 siRNA,160 mg and 110 mg and 40 mg and 90 mg and 130 mg
"purified 24p3/NGAL: purified 24p3/NGAL lipocalin protein made by GST-bacterial method (protein, UniProt P11672 21-200, looked up) Neutrophil …: QDSTQNLIPAPSLLTVPLQPDFRSDQFRGRWYVVGLAGNAVQKKTEGSFTMYSTIYELQENNSYNVTSILVRDQDQGCRYWIRTFVPSSRAGQFTLGNMHRYPQVQSYNVQVATTDYNQFAMVFFRKTSENKQYFKITLYGRTKELSPELKERFTRFAKSLGLKDDNIIFSVPTDQCIDN",apoptosis induction,suitable targets cells,unable to induce apoptosis
